In ChEMBL document CHEMBL1201862, “PubChem BioAssay data set” (2004):
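Assay format: 96-well plates, 48-hour exposure. GI50 marks 50% less growth.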 Active and inactive are the calls of the source. Cut-off read from the data, not from the text of the source: active = GI50 up to about 1.1 µM and inactive = higher.

Key:
Experiment in all cases: growth of human tumour cells (NCI), 48 h
EKVX = test system: EKVX
HCC 2998 = test system: HCC 2998
HCT-15 = test system: HCT-15
HT-29 = test system: HT-29
K562 = test system: K562
LOX IMVI = test system: LOX IMVI
MCF7 = test system: MCF7
MDA-N = test system: MDA-N
Malme-3M = test system: Malme-3M
NCI-H226 = test system: NCI-H226
NCI-H522 = test system: NCI-H522
OVCAR-3 = test system: OVCAR-3
RPMI-8226 = test system: RPMI-8226
SK-MEL-2 = test system: SK-MEL-2
TK-10 = test system: TK-10
UACC-257 = test system: UACC-257
HOP-92 = test system: HOP-92
SF-295 = test system: SF-295
786-0 = test system: 786-0

CCCOP(=O)(OCCC)OC(C(F)(F)F)C(F)(F)F
GI50 (EKVX): > 100 µM (inactive)
GI50 (HCC 2998): > 100 µM (inactive)
GI50 (HCT-15): > 100 µM
GI50 (HT-29): > 100 µM (inactive)
GI50 (K562): > 100 µM (inactive)
GI50 (LOX IMVI): > 100 µM (inactive)
GI50 (MCF7): > 100 µM (inactive)
GI50 (MDA-N): > 100 µM (inactive)
GI50 (Malme-3M): > 100 µM (inactive)
GI50 (NCI-H226): > 100 µM (inactive)
GI50 (NCI-H522): > 100 µM (inactive)
GI50 (OVCAR-3): > 100 µM (inactive)
GI50 (RPMI-8226): > 100 µM (inactive)
GI50 (SK-MEL-2): > 100 µM (inactive)
GI50 (TK-10): > 100 µM (inactive)
GI50 (UACC-257): > 100 µM (inactive)

CN1Cc2cc(O)c(O)cc2C(O)C1 (stereo not drawn)
GI50 (EKVX): > 100 µM (inactive)
GI50 (HCC 2998): > 100 µM (inactive)
GI50 (HOP-92): > 100 µM (inactive)
GI50 (HT-29): > 100 µM (inactive)
GI50 (K562): > 100 µM (inactive)
GI50 (LOX IMVI): 69.2 µM (inactive)
GI50 (MCF7): > 100 µM (inactive)
GI50 (MDA-N): 55.2 µM (inactive)
GI50 (Malme-3M): > 100 µM (inactive)
GI50 (NCI-H226): > 100 µM (inactive)
GI50 (NCI-H522): 49.3 µM (inactive)
GI50 (OVCAR-3): > 100 µM (inactive)
GI50 (RPMI-8226): > 100 µM (inactive)
GI50 (SF-295): > 100 µM (inactive)
GI50 (SK-MEL-2): > 100 µM (inactive)
GI50 (TK-10): > 100 µM (inactive)
GI50 (UACC-257): > 100 µM (inactive)

O=C1CC(/C=C/c2ccco2)=C(O)C1=O
GI50 (EKVX): 15.7 µM (inactive)
GI50 (HCC 2998): 17.9 µM (inactive)
GI50 (HCT-15): 13.5 µM
GI50 (HOP-92): 13.8 µM (inactive)
GI50 (HT-29): 11.7 µM (inactive)
GI50 (K562): 12.1 µM (inactive)
GI50 (LOX IMVI): 12.8 µM (inactive)
GI50 (MCF7): 7.01 µM (inactive)
GI50 (MDA-N): 12.3 µM (inactive)
GI50 (Malme-3M): 11.6 µM (inactive)
GI50 (NCI-H226): 22 µM (inactive)
GI50 (NCI-H522): 12.2 µM (inactive)
GI50 (OVCAR-3): 13 µM (inactive)
GI50 (RPMI-8226): 13.2 µM (inactive)
GI50 (SF-295): 19.5 µM (inactive)
GI50 (SK-MEL-2): 16.4 µM (inactive)
GI50 (TK-10): 22.5 µM (inactive)
GI50 (UACC-257): 15.7 µM (inactive)

CCOC(=O)NC(C(F)(F)F)(C(F)(F)F)P(=O)(OC(C)C)OC(C)C
GI50 (786-0): > 100 µM (inactive)
GI50 (EKVX): > 100 µM (inactive)
GI50 (HCC 2998): > 100 µM (inactive)
GI50 (HCT-15): > 100 µM
GI50 (HT-29): > 100 µM (inactive)
GI50 (K562): > 100 µM (inactive)
GI50 (LOX IMVI): > 100 µM (inactive)
GI50 (MCF7): > 100 µM (inactive)
GI50 (MDA-N): > 100 µM (inactive)
GI50 (Malme-3M): > 100 µM (inactive)
GI50 (NCI-H226): 58.7 µM (inactive)
GI50 (OVCAR-3): > 100 µM (inactive)
GI50 (RPMI-8226): > 100 µM (inactive)
GI50 (SF-295): > 100 µM (inactive)
GI50 (SK-MEL-2): > 100 µM (inactive)
GI50 (TK-10): > 100 µM (inactive)
GI50 (UACC-257): > 100 µM (inactive)

CC1=C(C(=O)NNC(=O)C(N)=O)CC(C(=O)NNC(=O)C(N)=O)=C(C)N1
GI50 (786-0): > 100 µM (inactive)
GI50 (EKVX): > 100 µM (inactive)
GI50 (HCC 2998): > 100 µM (inactive)
GI50 (HCT-15): > 100 µM
GI50 (HOP-92): > 100 µM (inactive)
GI50 (HT-29): > 100 µM (inactive)
GI50 (K562): > 100 µM (inactive)
GI50 (LOX IMVI): > 100 µM (inactive)
GI50 (MCF7): > 100 µM (inactive)
GI50 (MDA-N): > 100 µM (inactive)
GI50 (NCI-H226): > 100 µM (inactive)
GI50 (NCI-H522): > 100 µM (inactive)
GI50 (OVCAR-3): > 100 µM (inactive)
GI50 (RPMI-8226): > 100 µM (inactive)
GI50 (SF-295): > 100 µM (inactive)
GI50 (SK-MEL-2): > 100 µM (inactive)
GI50 (TK-10): > 100 µM (inactive)
GI50 (UACC-257): > 100 µM (inactive)

Nc1cc(Cl)cc2cc(Cl)cnc12
GI50 (786-0): > 100 µM (inactive)
GI50 (EKVX): 39.9 µM (inactive)
GI50 (HCC 2998): > 100 µM (inactive)
GI50 (HCT-15): > 100 µM
GI50 (HOP-92): 31.8 µM (inactive)
GI50 (HT-29): > 100 µM (inactive)
GI50 (K562): > 100 µM (inactive)
GI50 (LOX IMVI): > 100 µM (inactive)
GI50 (MCF7): > 100 µM (inactive)
GI50 (MDA-N): > 100 µM (inactive)
GI50 (Malme-3M): > 100 µM (inactive)
GI50 (NCI-H226): > 100 µM (inactive)
GI50 (NCI-H522): 57 µM (inactive)
GI50 (OVCAR-3): > 100 µM (inactive)
GI50 (RPMI-8226): > 100 µM (inactive)
GI50 (SF-295): > 100 µM (inactive)
GI50 (TK-10): > 100 µM (inactive)
GI50 (UACC-257): > 100 µM (inactive)

CCOC(=O)c1c(SCc2ccccc2)nc2c3ccccc3ccn12
GI50 (786-0): > 100 µM (inactive)
GI50 (EKVX): > 100 µM (inactive)
GI50 (HCC 2998): > 100 µM (inactive)
GI50 (HCT-15): > 100 µM
GI50 (HOP-92): 1.72 µM (inactive)
GI50 (HT-29): > 100 µM (inactive)
GI50 (K562): > 100 µM (inactive)
GI50 (LOX IMVI): > 100 µM (inactive)
GI50 (MCF7): > 100 µM (inactive)
GI50 (MDA-N): > 100 µM (inactive)
GI50 (Malme-3M): 63.7 µM (inactive)
GI50 (NCI-H226): 33.7 µM (inactive)
GI50 (NCI-H522): 37.2 µM (inactive)
GI50 (RPMI-8226): > 100 µM (inactive)
GI50 (SF-295): 40.7 µM (inactive)
GI50 (SK-MEL-2): > 100 µM (inactive)
GI50 (UACC-257): > 100 µM (inactive)

CC1(C)CC(C2=NCCO2)CC(C)(C)N1
GI50 (786-0): > 100 µM (inactive)
GI50 (EKVX): > 100 µM (inactive)
GI50 (HCT-15): > 100 µM
GI50 (HOP-92): > 100 µM (inactive)
GI50 (HT-29): > 100 µM (inactive)
GI50 (K562): > 100 µM (inactive)
GI50 (LOX IMVI): > 100 µM (inactive)
GI50 (MCF7): 27.7 µM (inactive)
GI50 (MDA-N): > 100 µM (inactive)
GI50 (Malme-3M): > 100 µM (inactive)
GI50 (NCI-H226): > 100 µM (inactive)
GI50 (OVCAR-3): > 100 µM (inactive)
GI50 (RPMI-8226): > 100 µM (inactive)
GI50 (SF-295): > 100 µM (inactive)
GI50 (SK-MEL-2): > 100 µM (inactive)
GI50 (TK-10): > 100 µM (inactive)
GI50 (UACC-257): > 100 µM (inactive)
